Experimental data taken from the supplement of paper PMC10307832.

Key:
Experiment in all cases: relative viability (nuclei count vs DMSO), 5 days (fraction); higher = more cells survive
[1] = compound: C[C@@H](N)c1ccc(C(=O)Nc2ccnc3[nH]ccc23)cc1 + C[C@@H](Oc1cc(-c2cnn(C3CCNCC3)c2)cnc1N)c1c(Cl)ccc(F)c1Cl [Crizotinib] (partner 1 µM)
Outline: (§1)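 Relative viability was taken as the ratio of nuclei in treated wells to nuclei in vehicle wells. Lung cancer cell lines in 1536-well plates received compounds by pin tool one day after seeding, either one drug alone or a fixed anchor-drug dose plus five library-drug doses (not always all listed) in √10 steps. Nuclei were counted on 4× images after 5 days of treatment, and values are medians of duplicate plates.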

[2] = compound: C[C@@H](N)c1ccc(C(=O)Nc2ccnc3[nH]ccc23)cc1 + CS(=O)(=O)CCNCc1ccc(-c2ccc3ncnc(Nc4ccc(OCc5cccc(F)c5)c(Cl)c4)c3c2)o1 [Lapatinib] (partner 2 µM)
Outline: as §1

Tanzisertib + Dasatinib = compound: O[C@H]1CC[C@H](Nc2ncc3nc(Nc4c(F)cc(F)cc4F)n([C@H]4CCOC4)c3n2)CC1 [Tanzisertib] + Cc1nc(Nc2ncc(C(=O)Nc3c(C)cccc3Cl)s2)cc(N2CCN(CCO)CC2)n1 [Dasatinib] (partner 0.075 µM)
Outline: as §1

## NCI-H2170
[1]; first compound 0.04 µM
  relative viability: 1.21
[1]; first compound 0.1265 µM
  relative viability: 1.08
[1]; first compound 0.4 µM
  relative viability: 1.18
[1]; first compound 1.265 µM
  relative viability: 1.21
[1]; first compound 4 µM
  relative viability: 1.08
[2]; first compound 0.04 µM
  relative viability: 0.28
[2]; first compound 0.1265 µM
  relative viability: 0.273
[2]; first compound 0.4 µM
  relative viability: 0.302
[2]; first compound 1.265 µM
  relative viability: 0.323
[2]; first compound 4 µM
  relative viability: 0.26
Tanzisertib + Dasatinib; first compound 0.08 µM
  relative viability: 0.625
Tanzisertib + Dasatinib; first compound 0.253 µM
  relative viability: 0.586
Tanzisertib + Dasatinib; first compound 0.8 µM
  relative viability: 0.574
Tanzisertib + Dasatinib; first compound 2.53 µM
  relative viability: 0.568
Tanzisertib + Dasatinib; first compound 8 µM
  relative viability: 0.512

## HCC-366
[1]; first compound 0.04 µM
  relative viability: 0.71
[1]; first compound 0.1265 µM
  relative viability: 0.536
[1]; first compound 0.4 µM
  relative viability: 0.683
[1]; first compound 4 µM
  relative viability: 0.483
[2]; first compound 0.04 µM
  relative viability: 1
[2]; first compound 0.1265 µM
  relative viability: 1.15
[2]; first compound 0.4 µM
  relative viability: 1.11
[2]; first compound 4 µM
  relative viability: 1.04
Tanzisertib + Dasatinib; first compound 0.08 µM
  relative viability: 0.81
Tanzisertib + Dasatinib; first compound 0.253 µM
  relative viability: 0.606
Tanzisertib + Dasatinib; first compound 0.8 µM
  relative viability: 0.629
Tanzisertib + Dasatinib; first compound 2.53 µM
  relative viability: 0.62
Tanzisertib + Dasatinib; first compound 8 µM
  relative viability: 0.542

## NCI-H2347
[1]; first compound 0.04 µM
  relative viability: 0.668
[1]; first compound 0.1265 µM
  relative viability: 0.775
[1]; first compound 0.4 µM
  relative viability: 0.776
[1]; first compound 1.265 µM
  relative viability: 0.714
[1]; first compound 4 µM
  relative viability: 0.605
[2]; first compound 0.04 µM
  relative viability: 0.833
[2]; first compound 0.1265 µM
  relative viability: 0.959
[2]; first compound 0.4 µM
  relative viability: 0.933
[2]; first compound 1.265 µM
  relative viability: 0.347
[2]; first compound 4 µM
  relative viability: 0.868
Tanzisertib + Dasatinib; first compound 0.08 µM
  relative viability: 0.333
Tanzisertib + Dasatinib; first compound 0.8 µM
  relative viability: 0.309
Tanzisertib + Dasatinib; first compound 2.53 µM
  relative viability: 0.26
Tanzisertib + Dasatinib; first compound 8 µM
  relative viability: 0.303

## COR-L 105
[1]; first compound 0.04 µM
  relative viability: 0.721
[1]; first compound 0.1265 µM
  relative viability: 0.747
[1]; first compound 0.4 µM
  relative viability: 0.652
[1]; first compound 1.265 µM
  relative viability: 0.537
[1]; first compound 4 µM
  relative viability: 0.408
[2]; first compound 0.04 µM
  relative viability: 0.305
[2]; first compound 0.1265 µM
  relative viability: 0.355
[2]; first compound 0.4 µM
  relative viability: 0.376
[2]; first compound 1.265 µM
  relative viability: 0.257
[2]; first compound 4 µM
  relative viability: 0.364
Tanzisertib + Dasatinib; first compound 0.08 µM
  relative viability: 0.397
Tanzisertib + Dasatinib; first compound 0.253 µM
  relative viability: 0.356
Tanzisertib + Dasatinib; first compound 0.8 µM
  relative viability: 0.297
Tanzisertib + Dasatinib; first compound 2.53 µM
  relative viability: 0.354
Tanzisertib + Dasatinib; first compound 8 µM
  relative viability: 0.255

## 201T
[1]; first compound 0.04 µM
  relative viability: 1.02
[1]; first compound 0.1265 µM
  relative viability: 1.02
[1]; first compound 0.4 µM
  relative viability: 0.959
[1]; first compound 1.265 µM
  relative viability: 1.09
[1]; first compound 4 µM
  relative viability: 1.1
[2]; first compound 0.04 µM
  relative viability: 1
[2]; first compound 0.1265 µM
  relative viability: 0.989
[2]; first compound 0.4 µM
  relative viability: 1.09
[2]; first compound 1.265 µM
  relative viability: 0.971
[2]; first compound 4 µM
  relative viability: 1.24
Tanzisertib + Dasatinib; first compound 0.08 µM
  relative viability: 0.546
Tanzisertib + Dasatinib; first compound 0.253 µM
  relative viability: 0.608
Tanzisertib + Dasatinib; first compound 0.8 µM
  relative viability: 0.537
Tanzisertib + Dasatinib; first compound 2.53 µM
  relative viability: 0.496
Tanzisertib + Dasatinib; first compound 8 µM
  relative viability: 0.582

## NCI-H2126
[1]; first compound 0.04 µM
  relative viability: 1.03
[1]; first compound 0.1265 µM
  relative viability: 1.02
[1]; first compound 0.4 µM
  relative viability: 1.03
[1]; first compound 1.265 µM
  relative viability: 1.02
[1]; first compound 4 µM
  relative viability: 1.04
[2]; first compound 0.04 µM
  relative viability: 0.825
[2]; first compound 0.1265 µM
  relative viability: 0.866
[2]; first compound 0.4 µM
  relative viability: 0.764
[2]; first compound 1.265 µM
  relative viability: 0.859
[2]; first compound 4 µM
  relative viability: 0.966
Tanzisertib + Dasatinib; first compound 0.08 µM
  relative viability: 0.614
Tanzisertib + Dasatinib; first compound 0.253 µM
  relative viability: 0.626
Tanzisertib + Dasatinib; first compound 0.8 µM
  relative viability: 0.614
Tanzisertib + Dasatinib; first compound 2.53 µM
  relative viability: 0.628
Tanzisertib + Dasatinib; first compound 8 µM
  relative viability: 0.572

## LC-2-ad
[1]; first compound 0.04 µM
  relative viability: 0.43
[1]; first compound 0.1265 µM
  relative viability: 0.486
[1]; first compound 0.4 µM
  relative viability: 0.501
[1]; first compound 1.265 µM
  relative viability: 0.438
[1]; first compound 4 µM
  relative viability: 0.409
[2]; first compound 0.04 µM
  relative viability: 0.899
[2]; first compound 0.1265 µM
  relative viability: 0.922
[2]; first compound 0.4 µM
  relative viability: 1
[2]; first compound 1.265 µM
  relative viability: 0.967
[2]; first compound 4 µM
  relative viability: 0.661
Tanzisertib + Dasatinib; first compound 0.08 µM
  relative viability: 0.789
Tanzisertib + Dasatinib; first compound 0.253 µM
  relative viability: 0.642
Tanzisertib + Dasatinib; first compound 0.8 µM
  relative viability: 0.686
Tanzisertib + Dasatinib; first compound 2.53 µM
  relative viability: 0.684
Tanzisertib + Dasatinib; first compound 8 µM
  relative viability: 0.403

## NCI-H2085
[1]; first compound 0.04 µM
  relative viability: 0.914
[1]; first compound 0.1265 µM
  relative viability: 0.917
[1]; first compound 0.4 µM
  relative viability: 0.786
[1]; first compound 1.265 µM
  relative viability: 0.749
[1]; first compound 4 µM
  relative viability: 0.718
[2]; first compound 0.04 µM
  relative viability: 0.841
[2]; first compound 0.1265 µM
  relative viability: 0.729
[2]; first compound 0.4 µM
  relative viability: 0.872
[2]; first compound 1.265 µM
  relative viability: 0.546
[2]; first compound 4 µM
  relative viability: 0.799
Tanzisertib + Dasatinib; first compound 0.08 µM
  relative viability: 0.22
Tanzisertib + Dasatinib; first compound 0.253 µM
  relative viability: 0.246
Tanzisertib + Dasatinib; first compound 0.8 µM
  relative viability: 0.24
Tanzisertib + Dasatinib; first compound 2.53 µM
  relative viability: 0.224
Tanzisertib + Dasatinib; first compound 8 µM
  relative viability: 0.261

## NCI-H358
[1]; first compound 0.04 µM
  relative viability: 0.744
[1]; first compound 0.1265 µM
  relative viability: 0.543
[1]; first compound 0.4 µM
  relative viability: 0.676
[1]; first compound 1.265 µM
  relative viability: 0.513
[1]; first compound 4 µM
  relative viability: 0.633
[2]; first compound 0.04 µM
  relative viability: 0.482
[2]; first compound 0.1265 µM
  relative viability: 0.363
[2]; first compound 0.4 µM
  relative viability: 0.435
[2]; first compound 1.265 µM
  relative viability: 0.465
[2]; first compound 4 µM
  relative viability: 0.366
Tanzisertib + Dasatinib; first compound 0.08 µM
  relative viability: 0.185
Tanzisertib + Dasatinib; first compound 0.253 µM
  relative viability: 0.159
Tanzisertib + Dasatinib; first compound 0.8 µM
  relative viability: 0.164
Tanzisertib + Dasatinib; first compound 2.53 µM
  relative viability: 0.151
Tanzisertib + Dasatinib; first compound 8 µM
  relative viability: 0.131

## H3255
[1]; first compound 0.04 µM
  relative viability: 0.862
[1]; first compound 0.1265 µM
  relative viability: 0.979
[1]; first compound 0.4 µM
  relative viability: 1.04
[1]; first compound 1.265 µM
  relative viability: 0.972
[1]; first compound 4 µM
  relative viability: 0.761
[2]; first compound 0.04 µM
  relative viability: 0.306
[2]; first compound 0.1265 µM
  relative viability: 0.304
[2]; first compound 0.4 µM
  relative viability: 0.302
[2]; first compound 1.265 µM
  relative viability: 0.334
[2]; first compound 4 µM
  relative viability: 0.306
Tanzisertib + Dasatinib; first compound 0.08 µM
  relative viability: 0.426
Tanzisertib + Dasatinib; first compound 0.253 µM
  relative viability: 0.499
Tanzisertib + Dasatinib; first compound 0.8 µM
  relative viability: 0.306
Tanzisertib + Dasatinib; first compound 2.53 µM
  relative viability: 0.345
Tanzisertib + Dasatinib; first compound 8 µM
  relative viability: 0.344

## NCI-H2228
[1]; first compound 0.04 µM
  relative viability: 0.373
[1]; first compound 0.1265 µM
  relative viability: 0.463
[1]; first compound 0.4 µM
  relative viability: 0.653
[1]; first compound 1.265 µM
  relative viability: 0.556
[1]; first compound 4 µM
  relative viability: 0.497
[2]; first compound 0.04 µM
  relative viability: 1.18
[2]; first compound 0.1265 µM
  relative viability: 1.09
[2]; first compound 0.4 µM
  relative viability: 1.2
[2]; first compound 1.265 µM
  relative viability: 1.17
[2]; first compound 4 µM
  relative viability: 0.868
Tanzisertib + Dasatinib; first compound 0.08 µM
  relative viability: 0.624
Tanzisertib + Dasatinib; first compound 0.253 µM
  relative viability: 0.524
Tanzisertib + Dasatinib; first compound 0.8 µM
  relative viability: 0.537
Tanzisertib + Dasatinib; first compound 2.53 µM
  relative viability: 0.462
Tanzisertib + Dasatinib; first compound 8 µM
  relative viability: 0.433
